The text below walks through data of patent US20250009852A1, “DEPLETING EGFR AND HER2 OVERCOMES RESISTANCE TO EGFR INHIBITORS IN COLORECTAL CANCER” (Health Research, Inc., priority 2021, published 2025).

The subject of one data set is HCT116 tumors. In words: Subcutaneous HCT116 tumors in SCID mice. It counts as in vivo, mouse. The following applies: sc HCT116 tumors; 5-FU 35 mg/kg ip every 3-4 days, alone or with EP and PEPD^G278D 4 mg/kg, without aderbasib (FIG. 14). As for the experimental part:
SCID mice (C.B.17 SCID) were bred by the Laboratory Animal Shared Resource at Roswell Park Comprehensive Cancer Center. Male mice at 7-8 weeks of age were used. All mouse experiments were approved by the Institutional Animal Care and Use Committee at Roswell Park Comprehensive Cancer Center under protocol 1022M. We established subcutaneous tumors by inoculating 1×10^6 HCT116 cells, 4×10^6 HT29 cells, or 2×10^6 SW48 cells to the flank of each mouse in 100 μl of serum free medium. Colon patient-derived xenograft (PDX) 14650 was established from a liver metastatic lesion in a patient treated at Roswell Park Comprehensive Cancer Center. Tumor fragments (˜20 mm^3) from donor mice were implanted into the flank of each mouse subcutaneously using a trocar. Orthotopic colon tumors in mice were established by inoculating HCT116 cells stably transfected with firefly luciferase (2×10^6 cells in 50 μl of 50% serum-free medium and 50% Matrigel) to the caecum wall of each mouse. Mice in each tumor model were randomized cage-wise into treatment groups using Research Randomizer (www.randomizer.org). Subcutaneous tumor volume was measured using length ×width^2÷2. Tumor volume was measured three times each week. Orthotopic tumor growth was monitored by bioluminescence weekly. Mice were given D-luciferin (150 mg/kg) by ip and anesthetized with isoflurane, and tumor burden was measured by bioluminescence using the IVIS Spectrum In Vivo Imaging System (PerkinElmer). Drug treatment was started when significant tumor growth was detected. EP (0.5 mg/kg) was administered to mice ip once daily. […] Aderbasib (60 mg/kg) was administered to mice by gavage once daily. 5-FU (35 mg/kg) was administered to mice ip twice weekly (Monday and Thursday). EP, PEPD^G278D and 5-FU were administered to mice in PBS. Aderbasib was first dissolved in DMSO and then diluted by PBS (final 5% DMSO by volume). Each agent was administered to mice at 0.1 ml volume per 20 g body weight. When a mouse was given multiple agents on the same day, the agents were dosed at approximately 30 min intervals. The mice were closely monitored for sign of adverse effects and weighed three times each week. Mice were sacrificed 24-48 hours after the last treatment, at which point the tumors were promptly removed, snap frozen and stored at −80° C. for later analysis. Some tumors were fixed in 10% buffered formalin, paraffin embedded, cut at 4 μm, and stained with hematoxylin and eosin (H & E) for histological analysis.

A further data set relates to HT29 tumors. In words: Subcutaneous HT29 tumors in SCID mice. As to conditions: sc HT29 tumors; 5-FU 35 mg/kg ip every 4 days (FIG. 14). The format is in vivo, mouse. Here is the method: SCID mice (C.B.17 SCID) were bred by the Laboratory Animal Shared Resource at Roswell Park Comprehensive Cancer Center. Male mice at 7-8 weeks of age were used. All mouse experiments were approved by the Institutional Animal Care and Use Committee at Roswell Park Comprehensive Cancer Center under protocol 1022M. We established subcutaneous tumors by inoculating 1×10^6 HCT116 cells, 4×10^6 HT29 cells, or 2×10^6 SW48 cells to the flank of each mouse in 100 μl of serum free medium. Colon patient-derived xenograft (PDX) 14650 was established from a liver metastatic lesion in a patient treated at Roswell Park Comprehensive Cancer Center. Tumor fragments (˜20 mm^3) from donor mice were implanted into the flank of each mouse subcutaneously using a trocar. Orthotopic colon tumors in mice were established by inoculating HCT116 cells stably transfected with firefly luciferase (2×10^6 cells in 50 μl of 50% serum-free medium and 50% Matrigel) to the caecum wall of each mouse. Mice in each tumor model were randomized cage-wise into treatment groups using Research Randomizer (www.randomizer.org). Subcutaneous tumor volume was measured using length ×width^2÷2. Tumor volume was measured three times each week. Orthotopic tumor growth was monitored by bioluminescence weekly. Mice were given D-luciferin (150 mg/kg) by ip and anesthetized with isoflurane, and tumor burden was measured by bioluminescence using the IVIS Spectrum In Vivo Imaging System (PerkinElmer). Drug treatment was started when significant tumor growth was detected. EP (0.5 mg/kg) was administered to mice ip once daily. PEPD^G278D (4 mg/kg) was administered to mice ip thrice weekly (Monday, Wednesday, Friday). Aderbasib (60 mg/kg) was administered to mice by gavage once daily. 5-FU (35 mg/kg) was administered to mice ip twice weekly (Monday and Thursday). EP, PEPD^G278D and 5-FU were administered to mice in PBS. Aderbasib was first dissolved in DMSO and then diluted by PBS (final 5% DMSO by volume). […] The mice were closely monitored for sign of adverse effects and weighed three times each week. […]

Data set [1] is described as follows: Monitoring of mice for signs of adverse effects. It counts as in vivo. As to conditions: mouse, in vivo, ip, 35 mg/kg. Here is the method: SCID mice (C.B.17 SCID) were bred by the Laboratory Animal Shared Resource at Roswell Park Comprehensive Cancer Center. Male mice at 7-8 weeks of age were used. All mouse experiments were approved by the Institutional Animal Care and Use Committee at Roswell Park Comprehensive Cancer Center under protocol 1022M. We established subcutaneous tumors by inoculating 1×10^6 HCT116 cells, 4×10^6 HT29 cells, or 2×10^6 SW48 cells to the flank of each mouse in 100 μl of serum free medium. Colon patient-derived xenograft (PDX) 14650 was established from a liver metastatic lesion in a patient treated at Roswell Park Comprehensive Cancer Center. Tumor fragments (˜20 mm^3) from donor mice were implanted into the flank of each mouse subcutaneously using a trocar. […] Subcutaneous tumor volume was measured using length ×width^2÷2. Tumor volume was measured three times each week. Orthotopic tumor growth was monitored by bioluminescence weekly. Mice were given D-luciferin (150 mg/kg) by ip and anesthetized with isoflurane, and tumor burden was measured by bioluminescence using the IVIS Spectrum In Vivo Imaging System (PerkinElmer). Drug treatment was started when significant tumor growth was detected. […] The mice were closely monitored for sign of adverse effects and weighed three times each week. […]

The next data set has as its system HCT116 cells. In words: MTT cell proliferation assay. As to conditions: 24, 48 or 72 h, PEPD^G278D 5-250 nM, cetuximab 2.75-275 nM, panitumumab 2.77-277 nM. The format is cell-based, human. Here is the method: (§1) Cells were grown in 96-well plates. […] The cells were then washed with PBS and mixed with dimethyl sulfoxide (150 μl per well), and cell density was determined by measuring the reduction of MTT to formazan spectroscopically at 570 nm using a Synergy 2 Multi-Mode Microplate Reader (BioTek). In experiments involving siRNA transfection, 2×10^3 HCT116 cells or 6×10^3 HT29 cells were seeded to each well of 96-well plates overnight and then transfected 25 nM siRNA (scramble siRNA, EGFR siRNA or HER2 siRNA) as described above, followed by MTT assay.
For orientation: Tetrazolium dyes change colour on reduction, which living cells bring about.

For another data set, the system named is HT29 cells. The data set can be described thus: MTT cell proliferation assay. The format is cell-based, human. As to conditions: 24, 48 or 72 h, PEPD^G278D 5-250 nM, cetuximab 2.75-275 nM, panitumumab 2.77-277 nM. Here is the method: as §1
The subject of the next data set is SW48 cells. The data set can be described thus: MTT cell proliferation assay. The format is cell-based, human. The following applies: 24, 48 or 72 h, PEPD^G278D 5-250 nM, cetuximab 2.75-275 nM, panitumumab 2.77-277 nM. As for the experimental part: as §1
The test system of data set [2] is HER3, MET, IGF1R, SRC, AKT, ERK, MEK. In words: Western blotting of whole cell lysates: other RTKs and downstream signaling proteins. It counts as cell-based, human. The following applies: HCT116, HT29 and SW620 cells; 275-277 nM, 48 h. As for the experimental part:
To prepare whole cell lysates, cells were washed with PBS twice, mixed with 1× cell lysis buffer from Cell Signaling Technology supplemented with 2 mM PMSF and a protease inhibitor cocktail from Roche Applied Science, placed on ice for 10 min, sonicated at 0-4° C. to enhance cell lysis using a Branson Model 450 sonifier, and finally centrifuged at 13,000 g for 10 min at 4° C., and the supernatant fraction is collected as whole cell lysate. Tumor and samples were mixed with RIPA buffer (25 mM Tris-HCl, PH7.6, 150 mM NaCl, 1% Nonidet P-40, 1% sodium deoxycholate, and 0.1% SDS), which was supplemented with 2 mM PMSF, the protease inhibitor cocktail mentioned above, phosphatase inhibitor cocktail 2 and phosphatase inhibitor cocktail 3 from Sigma-Aldrich at 14.3 μl buffer per mg tissue, and homogenized in a Dounce homogenizer. The homogenates were cleared by centrifugation at 13,000 g for 15 min at 4° C.
Protein concentrations in all samples were measured using the BCA Assay Kit. For Western blotting, each sample was mixed with 4× loading dye, heated for 5 min at 95° C., and resolved by SDS-PAGE (8-12.5%). Proteins were transferred to polyvinylidene fluoride membrane, probed with specific antibodies, and detected using either Luminata Classico (Millipore) or Luminata Cresendo (Millipore). For IP, cell lysates (0.5 mg protein/sample) were incubated with a desired antibody overnight at 4° C., followed by incubation of 500 μl sample with 30 μl G-Sepharose beads (2 mg/ml) for 1 h at RT. The beads were washed three times with IP buffer, suspended in 2× SDS loading buffer, boiled for 5 min, and analyzed by Western blotting.
On the technique in general: A western blot detects proteins with antibodies after separation by electrophoresis.

A further data set has as its system EGFR. In words: Immunofluorescence staining and confocal microscopy of EGFR trafficking in SW48 cells. The format is cell-based, human. As to conditions: chloroquine 25 μM plus PEPD^G278D 25 nM. As for the experimental part:
SW48 cells were grown in chamber slides (4×10^4 cells/well) overnight with or without subsequent treatment with PEPD^G278D (25 nM) and/or chloroquine (25 μM) for up to 6 h. The cells were then washed with ice-cold PBS, fixed with 4% paraformaldehyde for 20 min at room temperature (RT), washed again with ice-cold PBS and blocked with 1% BSA in PBS for 1 h at RT. The cells were then incubated with an EGFR antibody, a His tag antibody for detection of PEPD^G278D, and/or a LAMP1 antibody overnight at 4° C., washed with PBS, incubated with a secondary antibody conjugated to Alexa-Fluor 488 or Alexa-Fluor 647 antibody for 1 h at RT and washed again with PBS. The cells were then examined with a BZ-X700 fluorescence microscope (Keyence) with a S PL FL ELWD ADM 40xC objective. Merged images from Z-stack were organized using the ImageJ software (NIH Image).

Data set [3] addresses Epidermal growth factor receptor (EGFR), wild type, P00533.
Data set [4] addresses T1, Epidermal growth factor receptor (EGFR), wild type (human, UniProt P00533 25-1210).
T1 construct: whole, on cells; also called WT EGFR; ErbB1
In words: immunofluorescence staining and confocal microscopy of SW48 cells treated with PEPD^G278D (25 nM), anti-His tag and anti-EGFR. As for the experimental part:
The cells were then washed with ice-cold PBS, fixed with 4% paraformaldehyde for 20 min at room temperature (RT), washed again with ice-cold PBS and blocked with 1% BSA in PBS for 1 h at RT. […] The cells were then examined with a BZ-X700 fluorescence microscope (Keyence) with a S PL FL ELWD ADM 40xC objective. Merged images from Z-stack were organized using the ImageJ software (NIH Image).
SW48 cells were cultured in serum-free medium.

`O=c1[nH]cc(F)c(=O)[nH]1` [5-FU, fluorouracil]: the tumor growth entry with HCT116 tumors and in the data set on HT29 tumors was “ineffective” throughout. Moreover, in data set [1], the “toxicity in a dose-finding experiment” value was “not toxic”.

As for panitumumab [reference compound], the “cell growth measured by MTT assay” value in the data set on HCT116 cells is “neither agent is active”; in the data set with HT29 cells it was “neither agent is active”; in the data set with SW48 cells it was “inhibited the growth of SW48 cells in a time- and concentration-dependent manner”. In addition, the “effect on MET and ERK” value in data set [2] is listed as “neither cetuximab nor panitumumab had any effect”.

For the molecule `CCN(CC)CCCC(C)Nc1ccnc2cc(Cl)ccc12` (centres unmarked) [chloroquine, reference compound], the “EGFR degradation induced by PEPD^G278D” value in the data set with EGFR was “blocked EGFR degradation”.

B1: PEPD^G278D (recombinant, enzymatically inactive mutant of human peptidase D, glycine 278 replaced by aspartic acid) (enzyme)
chain: AAATGPSFWLGNETLKVPLALFALNRQRLCERLRKNPAVQAGSIVVLQGGEETQRYCTDTGVLFLQESFFHWAFGVTEPGCYGVIDVDTGKSTLFVPRLPASHATWMGKIHSKEHFKEKYAVDDVQYVDEIASVLTSQKPSVLLTLRGVNTDSGSVCREASFDGISKFEVNNTILHPEIVESRVFKTDMELEVLRYTNKISSEAHREVMKAVKVGMKEYGLESLFEHYCYSRGGMRHSSYTCICGSGENSAVLHYGHAGAPNDRTIQNGDMCLFDMDGEYYSVASDITCSFPRNGKFTADQKAVYEAVLLSSRAVMGAMKPGDWWPDIDRLADRIHLEELAHMGILSGSVDAMVQAHLGAVFMPHGLGHFLGIDVHDVGGYPEGVERIDEPGLRSLRTARHLQPGMVLTVEPGIYFIDHLLDEALADPARASFLNREVLQRFRGFGGVRIEEDVVVIDSGIELLTCVPRTVEEIEACMAGCDKAFTPFSGPK
notes: Made in E. coli and purified by nickel chromatography; The His tag is placed C-terminal by the plasmid's name only; also called PEPD^G278D-His; hPEPD-G278D; not shown: His tag from pBAD/TOPO-PEPD^G278D-His
Take B1: the “expression and tyrosine phosphorylation of EGFR (Western blotting, 25 nM, 48 h)” value in data set [3] was “PEPD^G278D obliterated both expression and tyrosine phosphorylation of EGFR and HER2 in SW48, HCT116 and HT29 cells”. In addition, the “expression and tyrosine phosphorylation of HER2 (Western blotting, 25 nM, 48 h)” value with HER2, P04626 was “PEPD^G278D obliterated both expression and tyrosine phosphorylation of EGFR and HER2 in SW48, HCT116 and HT29 cells”. Moreover, in data set [4], the binding result was “binds”.
